This assay concerns Rh18 complex spheroid viability, percent test/control. Put plainly: Anticancer human tumor Rh18 cell line growth inhibition [Asc].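 As to all read-outs here: spheroids exposed to compound for 7 days.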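 As to viability, T/C: 100% = DMSO vehicle control wells.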 As to conditions: for viability, T/C: stronger effect = lower value. The procedure, abridged: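 Tumor cells were grown as multicellular spheroids with stromal HUVEC and mesenchymal stem cells and treated singly or in combination. Concentrations fell in half-log steps from the clinical Cmax, or from 10 microM where none was known.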

Where “and” joins values, the source holds several entries; their conditions need not be identical. Equal entries are not always repeated.

Take `NC(=O)C(=Cn1cnc(-c2cc(C(F)(F)F)cc(C(F)(F)F)c2)n1)c1cncnc1` + CNC(C)C(=O)NC1CN(S(=O)(=O)c2cccc(S(=O)(=O)N3CCC4CCC(C(=O)NC(c5ccccc5)c5ccccc5)N4C(=O)C(NC(=O)C(C)NC)C3)c2)CCC2CCC(C(=O)NC(c3ccccc3)c3ccccc3)N2C1=O: the IC50 (usually the midpoint of a concentration-inhibition curve) by setting is: (curve of first compound, second compound 0.01 µM) 6.12 nM; (curve of first compound, second compound 0.0316 µM) 3.91 nM; (curve of first compound, second compound 0.1 µM) 15 nM; (curve of first compound, second compound 0.316 µM) 4.49 nM; (curve of first compound, second compound 1 µM) below 0.949 nM. In addition, the viability, T/C (usually the result in the treated group divided by that in the control group, in per cent) was 56.6% (second compound 0.01 µM, first compound 0.000949 µM); 53.5% (second compound 0.01 µM, first compound 0.003 µM); 49.4% (second compound 0.01 µM, first compound 0.00949 µM); 39.7% (second compound 0.01 µM, first compound 0.03 µM); 42% (second compound 0.01 µM, first compound 0.0949 µM); 32.8% (second compound 0.01 µM, first compound 0.3 µM). The viability, T/C reads like this: (second compound 0.0316 µM, first compound 0.000949 µM) 74.8%; (second compound 0.0316 µM, first compound 0.003 µM) 51.3%; (second compound 0.0316 µM, first compound 0.00949 µM) 40.7%; (second compound 0.0316 µM, first compound 0.03 µM) 43.8%; (second compound 0.0316 µM, first compound 0.0949 µM) 38.7%; (second compound 0.0316 µM, first compound 0.3 µM) 31.4%. Further, the viability, T/C (second compound 0.1 µM, first compound 0.000949 µM) was 50.5%; the viability, T/C (second compound 0.1 µM, first compound 0.003 µM) was 56.4%; the viability, T/C (second compound 0.1 µM, first compound 0.00949 µM) is 49.7%; the viability, T/C (second compound 0.1 µM, first compound 0.03 µM) was 47.6%; the viability, T/C (second compound 0.1 µM, first compound 0.0949 µM) was 33.1%; the viability, T/C (second compound 0.1 µM, first compound 0.3 µM) is 27.7%. The viability, T/C by setting is: (second compound 0.316 µM, first compound 0.000949 µM) 52%; (second compound 0.316 µM, first compound 0.003 µM) 60.1%; (second compound 0.316 µM, first compound 0.00949 µM) 38.7%; (second compound 0.316 µM, first compound 0.03 µM) 29.7%; (second compound 0.316 µM, first compound 0.0949 µM) 34.3%; (second compound 0.316 µM, first compound 0.3 µM) 24.9%. For the same compound, the viability, T/C is 46% (second compound 1 µM, first compound 0.000949 µM); 39.5% (second compound 1 µM, first compound 0.003 µM); 38% (second compound 1 µM, first compound 0.00949 µM); 37.8% (second compound 1 µM, first compound 0.03 µM); 34.3% (second compound 1 µM, first compound 0.0949 µM); 25.6% (second compound 1 µM, first compound 0.3 µM).
Regarding `Cc1nc(N2CCC3(CC2)COC(C)C3N)c(CO)nc1Sc1ccnc(N)c1Cl` (configuration not stated), the viability, T/C reads like this: (compound 0.00949 µM) 73.9% and 66.6% and 93.2%; (compound 0.03 µM) 59.7% and 84% and 54%; (compound 0.0949 µM) 42.7% and 34.4% and 43%; (compound 0.3 µM) 35.3% and 19.2% and 23.9%; (compound 0.949 µM) 25.5% and 25.6% and 19.7%; (compound 3 µM) 13.4% and 15.9% and 15.6%. Also, where the note is “curve of compound”, the IC50 is 65.4 nM and 61.2 nM and 47.5 nM.

Values taken from PubChem BioAssay AID1963431 (Molecular Pharmacology Branch, DTP, NCI, 2024).
